Earlier results as cited in patent publication US5173304A, “Agents for the treatment of severe pain and preparation of said agents” (Dolorgiet Beteiligungs GmbH, priority 1989, dated 1992).

Conditions: in vivo

CC(C)Cc1ccc(C(C)C(=O)O)cc1 (centres unmarked) [ibuprofen]
Analgesic effectiveness: effective analgesic
Tolerability: well tolerated
